Numbers after ± are expanded uncertainties.
Experiments:
[1] = 298.15 K; 101.33 kPa; Liquid; Vibrating tube method
[2] = refractive index (Na D-line) (dimensionless); conditions: 298.15 K; 101.33 kPa; Liquid; Standard Abbe refractometry

Compound | mass density [1] | refractive index [2]
CCCC[n+]1cccc(C)c1.O=S(=O)([N-]S(=O)(=O)C(F)(F)F)C(F)(F)F | 1414.76 ± 0.6 kg/m3 | 1.44595 ± 0.0007
CCO [ethanol] | 785.44 ± 0.13 kg/m3 | 1.35936 ± 0.00068
CCCC[n+]1cccc(C)c1.O=S(=O)([O-])C(F)(F)F [1-butyl-3-methylpyridinium trifluoromethanesulfonate] | 1279.77 ± 0.47 kg/m3 | 1.46138 ± 0.0007
CCn1cc[n+](C)c1.O=S(=O)([N-]S(=O)(=O)C(F)(F)F)C(F)(F)F | 1518.74 ± 0.7 kg/m3 | 1.42307 ± 0.0007
CCCC[n+]1ccn(C)c1.O=S(=O)([N-]S(=O)(=O)C(F)(F)F)C(F)(F)F | 1436.1 ± 0.62 kg/m3 | 1.42672 ± 0.0007
CCCCCC [hexane] | 655.2 ± 0.26 kg/m3 | 1.37241 ± 0.0007

— the NIST ThermoML archive (doi:10.1016/j.jct.2012.06.028)
